For experiment [1], the target named is T1, recombinant human PKM2 (Homo sapiens, UniProt P14618).
T1 construct: His (N); purchased R&D Systems
As to the kind of experiment: Human PKM2 activation assay (Kinase-Glo Plus luminescent detection of generated ATP). As to conditions: for Emax: percentage activation normalised to DMSO vehicle (LOW) and 5 μM TEPP-46 (HIGH), read-out: hPKM2 Emax; for EC50: recombinant human PKM2 activation, 4-parameter logistic fit, read-out: hPKM2 EC50. It counts as biochemical. The essentials:
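N-His-tagged recombinant hPKM2 ([…]) with PEP and ADP was incubated with compound for 60 min at 26 °C, shaking, in 50 mM imidazole, 50 mM KCl, 7 mM MgCl2, 0.01% Tween20, 0.05% BSA, pH 7.2. ATP produced was read by Kinase-Glo Plus luminescence after 15 min.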

Experiment [2] addresses T2, recombinant human PKLR (Homo sapiens, UniProt P30613).
T2 construct: His (N); purchased R&D Systems
Put plainly: Human PKLR activation assay (Kinase-Glo Plus luminescent detection of generated ATP). It counts as biochemical. As to conditions: for EC50: activation of recombinant human PKLR, 4-parameter logistic fit, read-out: hPKLR EC50; for Emax: percentage activation normalised to DMSO vehicle (LOW) and 5 μM TEPP-46 (HIGH) controls, read-out: hPKLR Emax (%).

In experiment [3] the test system is A549 cells. As to the kind of experiment: A549 cell proliferation in low-serine medium (CellTiter-Glo 2.0 viable cell number). It counts as cell-based. As to conditions: Homo sapiens, 72 h, 3 days, Assay Medium with 20 μM L-serine. The essentials: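 A549 cells (600/well) were plated overnight and then exposed for 3 days at 37 °C to compound in Basal Medium Eagle with 3% dialysed FBS, 2 mM glutamine and 20 μM L-serine. Viable cell number was read by CellTiter-Glo luminescence and normalized to time-zero and DMSO controls. IC50 came from a 4-parameter logistic fit.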

T1 sequence (P14618 2-531 limits assumed): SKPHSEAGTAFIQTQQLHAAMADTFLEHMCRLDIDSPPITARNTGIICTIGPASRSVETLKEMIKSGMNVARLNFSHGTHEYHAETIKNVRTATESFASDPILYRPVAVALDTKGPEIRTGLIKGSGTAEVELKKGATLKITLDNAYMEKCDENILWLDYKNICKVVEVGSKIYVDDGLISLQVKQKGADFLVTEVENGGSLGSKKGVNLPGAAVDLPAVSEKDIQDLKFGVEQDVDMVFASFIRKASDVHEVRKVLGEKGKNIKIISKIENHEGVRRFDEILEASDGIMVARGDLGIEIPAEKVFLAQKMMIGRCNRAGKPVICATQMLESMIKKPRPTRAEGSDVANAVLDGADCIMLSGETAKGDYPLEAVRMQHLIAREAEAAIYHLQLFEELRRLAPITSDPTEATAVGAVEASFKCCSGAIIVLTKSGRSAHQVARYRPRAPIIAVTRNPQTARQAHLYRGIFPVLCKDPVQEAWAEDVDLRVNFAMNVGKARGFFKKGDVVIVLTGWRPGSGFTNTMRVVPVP
T2 sequence (P30613 whole entry): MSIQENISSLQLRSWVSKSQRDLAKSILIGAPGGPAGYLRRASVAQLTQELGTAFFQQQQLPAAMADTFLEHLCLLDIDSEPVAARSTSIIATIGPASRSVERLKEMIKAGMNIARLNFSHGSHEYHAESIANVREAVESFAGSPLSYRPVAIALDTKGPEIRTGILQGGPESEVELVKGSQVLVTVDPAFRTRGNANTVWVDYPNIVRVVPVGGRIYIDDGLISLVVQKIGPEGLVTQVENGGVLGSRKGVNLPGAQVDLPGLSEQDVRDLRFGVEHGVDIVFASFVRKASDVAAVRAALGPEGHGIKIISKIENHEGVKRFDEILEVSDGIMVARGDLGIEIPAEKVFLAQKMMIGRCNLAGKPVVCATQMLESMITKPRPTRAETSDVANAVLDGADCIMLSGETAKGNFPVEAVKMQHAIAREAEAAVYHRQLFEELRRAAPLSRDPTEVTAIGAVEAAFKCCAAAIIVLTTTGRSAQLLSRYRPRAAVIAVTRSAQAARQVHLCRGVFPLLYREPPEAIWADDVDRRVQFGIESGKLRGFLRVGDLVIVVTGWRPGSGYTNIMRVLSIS

Regarding `COc1ccc(S(=O)(=O)c2ccc3c(=O)n(Cc4ccn(C5CC5)n4)ncc3c2)cc1` [Example 1, 2-((1-cyclopropyl-1H-pyrazol-3-yl)methyl)-6-((4-methoxyphenyl)sulfonyl)phthalazin-1(2H)-one], the Emax in experiment [1] came out at 129%; in experiment [2] it was 159%. Moreover, the EC50 in experiment [1] was 0.0276 µM; in experiment [2] it was 0.0047 µM. For the same compound, the IC50 in experiment [3] was determined as 0.0012 µM.

Turning to `Nc1cccc(Cn2ncc3cc(S(=O)(=O)c4ccccc4)ccc3c2=O)n1` [Example 38, 2-((6-aminopyridin-2-yl)methyl)-6-(phenylsulfonyl)phthalazin-1(2H)-one], in experiment [1], the Emax is 115% and the concentration giving a half-maximal response (EC50) was determined as 0.0401 µM. In experiment [2], the EC50 was found to be 0.0053 µM and the Emax turned out to be 149%. Further, inhibition in experiment [3] was half-maximal at 0.0015 µM (IC50).

With `COc1ccc(Cn2ncc3cc(S(=O)(=O)c4ccccc4)ccc3c2=O)cn1` [Example 41, 2-((6-methoxypyridin-3-yl)methyl)-6-(phenylsulfonyl)phthalazin-1(2H)-one], in experiment [1], the maximal effect (Emax) amounted to 111% and the EC50 is 0.0421 µM. In experiment [2], the concentration giving a half-maximal response (EC50) turned out to be 0.0158 µM and the maximal response (Emax) was 109%. This compound also had a half-maximal inhibitory concentration (IC50) in experiment [3] of 0.002 µM.

`COc1ccc(S(=O)(=O)c2ccc3c(=O)n(Cc4cc(C)[nH]n4)ncc3c2)cc1` [Example 54, 6-((4-methoxyphenyl)sulfonyl)-2-((5-methyl-1H-pyrazol-3-yl)methyl)phthalazin-1(2H)-one]: in experiment [1], the Emax is 112% and the EC50 worked out at 0.0455 µM. Moreover, in experiment [2], the EC50 was found to be 0.0031 µM and the Emax is 142%. Further, the IC50 in experiment [3] is 0.0022 µM.

Turning to `COc1ccc(S(=O)(=O)c2ccc3c(=O)n(Cc4cccnc4O)ncc3c2)cc1` [Example 56, 2-((2-hydroxypyridin-3-yl)methyl)-6-((4-methoxyphenyl)sulfonyl)phthalazin-1(2H)-one], the Emax turned out to be 98% in experiment [1] and 131% in experiment [2]. The figures for the concentration for a half-maximal effect (EC50) in experiment [1] and in experiment [2] were 0.0519 µM and 0.0101 µM, respectively. In experiment [3], this compound displayed a concentration for half-maximal inhibition (IC50) of 0.0017 µM.

Consider `Cn1ccc(Cn2ncc3cc(S(=O)(=O)c4ccccc4)ccc3c2=O)n1` [Example 60, 2-((1-methyl-1H-pyrazol-3-yl)methyl)-6-(phenylsulfonyl)phthalazin-1(2H)-one], for which, in experiment [1], the maximum response (Emax) amounted to 110% and the EC50 worked out at 0.1 µM. Further, in experiment [2], the EC50 was 0.0341 µM and the maximal effect (Emax) stood at 122%. Besides, 0.0036 µM corresponded to half-maximal inhibition in experiment [3] (IC50).

Turning to `O=c1c2ccc(S(=O)(=O)c3ccccc3)cc2cnn1Cc1cc[nH]n1` [Example 68, 2-((1H-pyrazol-3-yl)methyl)-6-(phenylsulfonyl)phthalazin-1(2H)-one], the figures for the Emax in experiment [1] and in experiment [2] were 117% and 134%, respectively. Further, the EC50 came out at 0.0708 µM in experiment [1] and 0.0171 µM in experiment [2]. In experiment [3], this compound came in with a half-maximal inhibitory concentration (IC50) of 0.0022 µM.

`O=c1c2ccc(S(=O)(=O)c3ccccc3)cc2cnn1Cc1ccn(C2CC2)n1` [Example 73, 2-((1-cyclopropyl-1H-pyrazol-3-yl)methyl)-6-(phenylsulfonyl)phthalazin-1(2H)-one]: in experiment [1], the Emax stood at 99.9% and the concentration giving a half-maximal response (EC50) is 0.0302 µM. Moreover, in experiment [2], the half-maximal effective concentration (EC50) came out at 0.014 µM and the Emax was found to be 117%. For the same compound, half-maximal inhibition in experiment [3] (IC50) was put at 0.0035 µM.

Consider `Cc1cccc(Cn2ncc3cc(S(=O)(=O)c4ccccc4)ccc3c2=O)n1` [Example 75, 2-((6-methylpyridin-2-yl)methyl)-6-(phenylsulfonyl)phthalazin-1(2H)-one], for which, in experiment [1], the Emax turned out to be 108% and the EC50 is 0.0477 µM. Further, in experiment [2], the concentration for a half-maximal effect (EC50) was determined as 0.0115 µM and the Emax came to 137%. Besides, in experiment [3], the IC50 amounted to 0.0022 µM.

Consider `Cc1cn(C)nc1Cn1ncc2cc(S(=O)(=O)c3ccccc3)ccc2c1=O` [Example 89, 2-((1,4-dimethyl-1H-pyrazol-3-yl)methyl)-6-(phenylsulfonyl)phthalazin-1(2H)-one], for which the Emax in experiment [1] is 101%; in experiment [2], 135%. Besides, the figures for the half-maximal effective concentration (EC50) in experiment [1] and in experiment [2] were 0.0508 µM and 0.0096 µM, respectively. This compound also gave a half-inhibitory concentration (IC50) in experiment [3] of 0.0017 µM.

For the compound `Cc1cc(Cn2ncc3cc(S(=O)(=O)c4ccccc4)ccc3c2=O)nn1C` [Example 90, 2-((1,5-dimethyl-1H-pyrazol-3-yl)methyl)-6-(phenylsulfonyl)phthalazin-1(2H)-one], in experiment [1], the maximal response (Emax) was 106% and the EC50 amounted to 0.0557 µM. In addition, in experiment [2], the concentration for a half-maximal effect (EC50) came out at 0.0101 µM and the Emax was found to be 139%. In experiment [3], it took 0.003 µM to reach half-maximal inhibition (IC50).

`CC(C)n1ccc(Cn2ncc3cc(S(=O)(=O)c4ccccc4)ccc3c2=O)n1` [Example 95, 2-((1-isopropyl-1H-pyrazol-3-yl)methyl)-6-(phenylsulfonyl)phthalazin-1(2H)-one]: in experiment [1], the Emax was 116% and the half-maximal effective concentration (EC50) stood at 0.0954 µM. In experiment [3], this compound returned a half-maximal inhibitory concentration (IC50) of 0.0099 µM.

With `Cc1cc(Cn2ncc3cc(S(=O)(=O)c4ccccc4)ccc3c2=O)n[nH]1` [Example 96, 2-((5-methyl-1H-pyrazol-3-yl)methyl)-6-(phenylsulfonyl)phthalazin-1(2H)-one], in experiment [1], the maximum response (Emax) was determined as 116% and the EC50 stood at 0.0626 µM. In experiment [2], the half-maximal effective concentration (EC50) came to 0.0093 µM and the maximal response (Emax) amounted to 128%. The compound further showed an IC50 in experiment [3] of 0.0033 µM.

Turning to `COc1ccc(S(=O)(=O)c2ccc3c(=O)n(Cc4ccc(C)nc4O)ncc3c2)cc1` [Example 98, 2-((2-hydroxy-6-methylpyridin-3-yl)methyl)-6-(4-methoxyphenylsulfonyl)phthalazin-1(2H)-one], in experiment [1], the Emax came out at 82% and the EC50 amounted to 0.257 µM. For the same compound, half-maximal inhibition in experiment [3] (IC50) was put at 0.009 µM.

Consider `COc1ccc(S(=O)(=O)c2ccc3c(=O)n(Cc4c(C)ccnc4O)ncc3c2)cc1` [Example 99, 2-((2-hydroxy-4-methylpyridin-3-yl)methyl)-6-(4-methoxyphenylsulfonyl)phthalazin-1(2H)-one], for which, in experiment [1], the maximal response (Emax) stood at 107% and the 50% effective concentration (EC50) is 0.138 µM. This compound displayed an IC50 in experiment [3] of 0.0046 µM.

In the case of `COc1ccc(S(=O)(=O)c2ccc3c(=O)n(Cc4cc(F)cnc4O)ncc3c2)cc1` [Example 100, 2-((5-fluoro-2-hydroxypyridin-3-yl)methyl)-6-(4-methoxyphenylsulfonyl)phthalazin-1(2H)-one], in experiment [1], the Emax came to 70.8% and the EC50 stood at 0.677 µM. This compound also had an IC50 in experiment [3] of 0.0739 µM.

For the compound `COc1ccc(S(=O)(=O)c2ccc3c(=O)n(Cc4cc(C(C)C)cnc4O)ncc3c2)cc1` [Example 101, 2-((2-hydroxy-5-isopropylpyridin-3-yl)methyl)-6-(4-methoxyphenylsulfonyl)phthalazin-1(2H)-one], in experiment [1], the maximal response (Emax) turned out to be 74.5% and the EC50 was found to be 0.24 µM. This compound returned a half-inhibitory concentration (IC50) in experiment [3] of 0.354 µM.

Consider `COc1ccc(S(=O)(=O)c2ccc3c(=O)n(Cc4c(Cl)ccnc4O)ncc3c2)cc1` [Example 102, 2-((4-chloro-2-hydroxypyridin-3-yl)methyl)-6-(4-methoxyphenylsulfonyl) phthalazin-1(2H)-one], for which, in experiment [1], the maximal response (Emax) worked out at 94.9% and the EC50 came to 0.0699 µM. In experiment [3], this compound came in with an IC50 of 0.0022 µM.

As to `COc1ccc(S(=O)(=O)c2ccc3c(=O)n(Cc4c(F)ccnc4O)ncc3c2)cc1` [Example 103, 2-((4-fluoro-2-hydroxypyridin-3-yl)methyl)-6-(4-methoxyphenylsulfonyl) phthalazin-1(2H)-one], in experiment [1], the maximal effect (Emax) was 98.8% and the EC50 is 0.0413 µM. The compound further returned a concentration for half-maximal inhibition (IC50) in experiment [3] of 0.0007 µM.

On to `COc1ccc(S(=O)(=O)c2ccc3c(=O)n(Cc4n[nH]cc4C)ncc3c2)cc1` [Example 104, 6-((4-methoxyphenyl)sulfonyl)-2-((4-methyl-1H-pyrazol-3-yl)methyl)phthalazin-1(2H)-one], for which, in experiment [1], the Emax is 104% and the concentration giving a half-maximal response (EC50) was 0.0565 µM. Also, in experiment [3], the IC50 is 0.0012 µM.

`COc1ccc(S(=O)(=O)c2ccc3c(=O)n(Cc4ccc(OC)cc4C(N)=O)ncc3c2)cc1` [Example 106, 5-methoxy-2-((6-(4-methoxyphenylsulfonyl)-1-oxophthalazin-2(1H)-yl)methyl)benzamide]: in experiment [1], the Emax stood at 93% and the EC50 turned out to be 0.142 µM. This compound registered a concentration for half-maximal inhibition (IC50) in experiment [3] of 0.0062 µM.

Take `O=c1c2ccc(S(=O)(=O)c3ccccc3)cc2cnn1Cc1cc2ccccn2n1` [Example 108, 6-(phenylsulfonyl)-2-(pyrazolo[1,5-a]pyridin-2-ylmethyl)phthalazin-1(2H)-one]: in experiment [1], the maximal response (Emax) amounted to 132% and the EC50 stood at 0.178 µM. In experiment [3], this compound had an IC50 of 0.002 µM.

These data come from US20260152487A1 (Sitryx Therapeutics Limited, priority 2021, published 2026).
